Test results as given in the NIST ThermoML archive (doi:10.1016/j.jct.2016.09.005).

Details: Brillouin Light Scattering

CC(C)OC(C)C [diisopropyl ether]
Details | speed of sound [m/s]
432.85 K, 1000 kPa, Liquid | 434.31
433.18 K, 2500 kPa, Liquid | 464.16
433.27 K, 4000 kPa, Liquid | 498.85
437.97 K, 5500 kPa, Liquid | 515.55
438.45 K, 8500 kPa, Liquid | 566.84
438.48 K, 10000 kPa, Liquid | 599.89
438.69 K, 7000 kPa, Liquid | 537.87
438.94 K, 2500 kPa, Liquid | 440.93
439.03 K, 4000 kPa, Liquid | 475.92
442.55 K, 7000 kPa, Liquid | 521.69
442.6 K, 4000 kPa, Liquid | 461.81
442.85 K, 8500 kPa, Liquid | 551.1
442.96 K, 10000 kPa, Liquid | 583.95
443.09 K, 5500 kPa, Liquid | 494.52
443.48 K, 2500 kPa, Liquid | 424.11
447.46 K, 2500 kPa, Liquid | 407.02
447.46 K, 10000 kPa, Liquid | 569.2
447.74 K, 5500 kPa, Liquid | 476.22
448.06 K, 8500 kPa, Liquid | 530.98
448.43 K, 4000 kPa, Liquid | 436.29
448.7 K, 7000 kPa, Liquid | 505.01
453.11 K, 2500 kPa, Liquid | 380.57
453.12 K, 5500 kPa, Liquid | 456.86
453.5 K, 4000 kPa, Liquid | 418.12
453.57 K, 10000 kPa, Liquid | 548.35
453.75 K, 8500 kPa, Liquid | 518.95
454.24 K, 7000 kPa, Liquid | 488.02
457.15 K, 2500 kPa, Liquid | 366.77
457.57 K, 10000 kPa, Liquid | 539.84
457.63 K, 8500 kPa, Liquid | 503.76
457.7 K, 7000 kPa, Liquid | 475.35
457.87 K, 4000 kPa, Liquid | 397.64
458.03 K, 5500 kPa, Liquid | 440.35
462.93 K, 4000 kPa, Liquid | 377.89
463.16 K, 7000 kPa, Liquid | 457.86
463.6 K, 8500 kPa, Liquid | 488.56
463.85 K, 10000 kPa, Liquid | 521.08
463.88 K, 2500 kPa, Liquid | 338.04
464.11 K, 5500 kPa, Liquid | 418.4
467.52 K, 5500 kPa, Liquid | 406.91
467.53 K, 10000 kPa, Liquid | 508.72
467.58 K, 7000 kPa, Liquid | 440.63
467.74 K, 8500 kPa, Liquid | 473.19
468.21 K, 4000 kPa, Liquid | 357.71
472.64 K, 8500 kPa, Liquid | 459.74
472.67 K, 7000 kPa, Liquid | 424.62
472.84 K, 5500 kPa, Liquid | 384.97
472.94 K, 4000 kPa, Liquid | 339.72
473.24 K, 10000 kPa, Liquid | 491.15
505.6 K, 3500 kPa, Fluid (supercritical or subcritical phases) | 132.11
505.8 K, 4500 kPa, Fluid (supercritical or subcritical phases) | 215.46
506.21 K, 5500 kPa, Fluid (supercritical or subcritical phases) | 263.63
506.39 K, 6500 kPa, Fluid (supercritical or subcritical phases) | 301.19
509.39 K, 3500 kPa, Fluid (supercritical or subcritical phases) | 114.34
509.87 K, 4500 kPa, Fluid (supercritical or subcritical phases) | 196.58
510.29 K, 5500 kPa, Fluid (supercritical or subcritical phases) | 244.35
510.5 K, 6500 kPa, Fluid (supercritical or subcritical phases) | 281.9
516.22 K, 3500 kPa, Fluid (supercritical or subcritical phases) | 102.13
516.95 K, 6500 kPa, Fluid (supercritical or subcritical phases) | 262.61
517.48 K, 4500 kPa, Fluid (supercritical or subcritical phases) | 161.27
518.73 K, 5500 kPa, Fluid (supercritical or subcritical phases) | 206.26
519.67 K, 3500 kPa, Fluid (supercritical or subcritical phases) | 108
520.35 K, 4500 kPa, Fluid (supercritical or subcritical phases) | 144.87
521.7 K, 5500 kPa, Fluid (supercritical or subcritical phases) | 199.75
522.21 K, 6500 kPa, Fluid (supercritical or subcritical phases) | 243.32
526.46 K, 3500 kPa, Fluid (supercritical or subcritical phases) | 116.09
527.21 K, 4500 kPa, Fluid (supercritical or subcritical phases) | 126.63
528.59 K, 5500 kPa, Fluid (supercritical or subcritical phases) | 173.63
529.79 K, 6500 kPa, Fluid (supercritical or subcritical phases) | 222.12
532.59 K, 4500 kPa, Fluid (supercritical or subcritical phases) | 114.85
533.14 K, 5500 kPa, Fluid (supercritical or subcritical phases) | 166.48
533.59 K, 6500 kPa, Fluid (supercritical or subcritical phases) | 210.67
534.66 K, 4500 kPa, Fluid (supercritical or subcritical phases) | 113.71
535.53 K, 5500 kPa, Fluid (supercritical or subcritical phases) | 159.52
536.07 K, 6500 kPa, Fluid (supercritical or subcritical phases) | 205.77
536.58 K, 3500 kPa, Fluid (supercritical or subcritical phases) | 132.72
540.66 K, 4500 kPa, Fluid (supercritical or subcritical phases) | 121.9
541.18 K, 5500 kPa, Fluid (supercritical or subcritical phases) | 155.19

speed of sound [m/s]
Details | 443.46 K | 453.54 K | 457.54 K | 463 K | 468.31 K | 473.8 K | 478.69 K | 483.1 K | 487.42 K | 492.48 K
Gas | 140.99 | 135.34 | 131.58 | 125.98 | 121.95 | 115.5 | 108.41 | 103.7 | 98.66 | 91.71
Liquid | 384.46 | 336.71 | 315.85 | 290.41 | 263.51 | 237.38 | 210.25 | 185.8 | 162.27 | 135.68
